Experimental data as given in patent publication US20020094992A1, “Intermittent administration of a growth hormone secretagogue” (priority 2000, published 2002).

Tests used:
[1] = Solubility and osmotic pressure of the active compound; format: physicochemical
[2] = test system: male and female subjects between the ages of 65 and 84 years, baseline IGF-1 <150 ng/ml; assay: Clinical study, first leg (immediate release dosage forms): IGF-1, IGFBP-3, body composition; format: in vivo, human
Procedure: (§1) This clinical study was performed in male and female subjects between the ages of 65 and 84 years inclusive, and whose baseline IGF-1 levels were <150 ng/ml.
(§2) The study was a double blind, parallel group, placebo-controlled study.
In the first leg of the study, the safety and efficacy of 2-amino-N-[2-(3a-(R)-benzyl-2-methyl-3-oxo-2,3,3a,4,6,7-hexahydro-pyrazolo[4,3-c]pyridin-5-yl)-1-(R)-benzyloxymethyl-2-oxo-ethyl]-isobutyramide L-tartrate was studied in 4 groups of approximately 24 subjects at doses of 0 mg (placebo), 1 mg tid, 3 mg tid and 3 mg am and 6 mg pm. (All dosage forms in this part of the study were immediate release dosage forms.)
(§3) Return visits were scheduled at 1, 2, and 4 weeks after baseline. A blood sample for 2-amino-N-[2-(3a-(R)-benzyl-2-methyl-3-oxo-2,3,3a,4,6,7-hexahydro-pyrazolo[4,3-c]pyridin-5-yl)-1-(R)-benzyloxymethyl-2-oxo-ethyl]-isobutyramide L-tartrate and IGF-1 levels was obtained at each visit. The baseline and all subsequent follow-up visits were performed at the same time of day (between approximately 8-11 am).
(§4) A follow-up evaluation was made at 1, 2, and 4 weeks. Vital signs were obtained and the skin of the face, trunk and upper extremities was inspected. A blood sample was obtained for measurement of GH and IGF-1, and for measurement of plasma concentrations of 2-amino-N-[2-(3a-(R)-benzyl-2-methyl-3-oxo-2,3,3a,4,6,7-hexahydro-pyrazolo[4,3-c]pyridin-5-yl)-1-(R)-benzyloxymethyl-2-oxo-ethyl]-isobutyramide L-tartrate.
(§5) The primary efficacy endpoint was the percentage change from baseline in IGF-1. Secondary outcomes included insulin-like growth factor binding protein 3 (IGIFBP-3), cholesterol subfractions, and percent changes in total adipose and total lean tissue. Changes in each of the secondary efficacy measures over time were examined systematically either graphically or in tabular form and summarized using appropriate descriptive statistics as is well known in the art.

[3] = test system: male and female subjects between the ages of 65 and 84 years, baseline IGF-1 <150 ng/ml; assay: Clinical study, extension study (CR, CR+IR, daily or every third day): IGF-I, GH peaks, body composition; format: in vivo, human
Procedure: as §1, §2
In addition, an extension study was conducted to evaluate the relationship between peak GH concentrations or IGF-I versus surrogate responses such as lipid concentrations and body composition. A controlled release (CR) formulation was also evaluated, either alone or combined with an immediate release (IR) formulation (24-30 patients per group). [16mg (10 CR, 6 IR) h.s.( h.s. means at bedtime); 16 mg (10 CR, 6 IR) h.s. every third day; 16 mg CR h.s.; and placebo.] The formulations are set forth below.
In the extension study, 2-amino-N-[2-(3a-(R)-benzyl-2-methyl-3-oxo-2,3,3a,4,6,7-hexahydro-pyrazolo[4,3-c]pyridin-5-yl)-1-(R)-benzyloxymethyl-2-oxo-ethyl]-isobutyramide L-tartrate was supplied as 10 mg or 3 mg controlled release tablets and 3 mg immediate release tablets, with matching placebo tablets. Study active compound was supplied in blisterpaks, with five tablets to be taken at time of each dosing. Subjects were instructed to take the tablets with one glass of water at bedtime.
as §3
In addition to this schedule, subjects at selected sites in the extension study were studied during two overnight admissions on the first night of dosing and again on day 28 of dosing. Growth hormone secretion and pharmacokinetic sampling was carried out.
as §4
In addition, subjects at selected study centers were admitted to an overnight unit on day 28 of dosing. Growth hormone secretion profile, pharmacokinetics, and vital sign determination were carried out.
as §5

[4] = two groups receiving IR formulation

In the case of `CN1N=C2CCN(C(=O)[C@@H](COCc3ccccc3)NC(=O)C(C)(C)N)C[C@@]2(Cc2ccccc2)C1=O.O=C(O)C(O)C(O)C(=O)O` [2-amino-N-[2-(3a-(R)-benzyl-2-methyl-3-oxo-2,3,3a,4,6,7-hexahydro-pyrazolo[4,3-c]pyridin-5-yl)-1-(R)-benzyloxymethyl-2-oxo-ethyl]-isobutyramide L-tartrate], the osmotic pressure [1] is reported as “about 4 atmospheres”, the “pH dependence of solubility” value ([1]; this GHSEC is a base) is reported as “generally higher at acidic pH” and the solubility ([1]; water) is reported as over 150 mg/mL. The IGF-1 dose relation ([2]; 0 mg, 1 mg tid, 3 mg tid, 3 mg am and 6 mg pm) was “dose related increase”, the “increase in IGF-1” value ([2]; both groups administered 9 mg daily (3 mg tid; 3 mg am and 6 mg pm), immediate release) was “approximately 35%” and the IGFBP3 ([2]; first leg) was “increased”. For the same compound, the “changes in body composition” value ([2]; first leg, small changes) was “decreased adipose tissue and increased apparent whole body lean mass”, the “attenuation of GH peaks” value ([3]; Q 3 day group compared with daily group) was “less attenuation” and the “average GH peaks” value ([3]; group receiving CR alone, after 4 weeks) was under 2 ng/mL. For the same compound, the “average GH peaks” value ([3]; group receiving CR alone, at baseline (first night of dosing)) was “less than 4 ng/ml”, the “average GH peaks” value ([3]; groups receiving 6 mg IR (with 10 mg CR), at baseline) was at least 15 ng/mL and the “average GH peaks” value ([3]; groups receiving 6 mg IR (with 10 mg CR), by 4 weeks) was 4 to 6 ng/mL. For the same compound, the “GH peak height, Q 3 day group greater than QD group” value ([3]; on average) was 1.52 ng/mL, the “average rise of IGF-I” value ([3]; remaining group, apparently 16 mg (10 CR, 6 IR) h.s. every third day) was “approximately 10%” and the IGF-I ([3]; the 2 groups dosed daily (16 mg CR h.s., 16 mg (10 CR, 6 IR) h.s.)) was “increases”. For the same compound, the adipose tissue [3, 4] was “corresponding reductions” and the “increases in lean tissue” value [3, 4] was 0.5-0.6%.
